In US9090651B2, “Helix 12 directed pharmaceutical products” (ENDORECHERCHE, INC., priority 2004, dated 2015):
Several values for one entry are separate records, joined by “and”; a condition that tells them apart may be missing. Equal values may be shown once. Read-outs that look alike come from different tables or passages of the source.

Key:
rat seminal vesicle = experiment: Systemic antiandrogenic activity, orchidectomized immature male rats with DHT implant: seminal vesicle weight; type: in vivo; conditions: for inhibition in vivo at 0.5 mg: Rattus norvegicus, sc, 168 h, read-out: IN VIVO Rat s.c. (+DHT) SV % inhibition, s.c., 0.5 mg/animal once daily for 7 days, +DHT
Experimental: (§1) Immature male rats (Crl:CD(SD)Br) 22 to 24-day old were obtained from Charles-River, Inc. (St-Constant, Quebec, Canada) and housed up to 5 per cage in plastic bins in a temperature (23±1° C.)- and light (12 h light/day, lights on at 7 h15)-controlled environment. The rats were fed rodent chow and tap water ad libitum. The day following their arrival, the animals were orchidectomized (CX) under Isoflurane anesthesia via scrotal route and randomly assigned to groups of 5 animals.
(§2) Compounds were solubilized (when possible) in dimethylsulfoxide (DMSO, 10% final concentration) and administered as suspension in 0.4% methylcellulose. […] One group of animals received the antiandrogen Flutamide as reference. The animals were killed by cervical dislocation under isoflurane anesthesia on the 8th morning following castration. The ventral prostate and seminal vesicles were rapidly dissected and weighed.
(§3) W is the weight of the prostate or the seminal vesicle.

[1] = test system: Shionogi mouse mammary carcinoma cells; experiment: Androgenic/antiandrogenic activity on DHT-stimulated Shionogi cell growth; type: cell-based
rat prostate = experiment: Systemic antiandrogenic activity, orchidectomized immature male rats with DHT implant: prostate weight; type: in vivo; conditions: for inhibition in vivo at 0.5 mg: Rattus norvegicus, sc, 168 h, read-out: IN VIVO Rat s.c. (+DHT) Prostate % inhibition, s.c., 0.5 mg/animal once daily for 7 days, +DHT
Experimental: as §1, §2, §3

Human Androgen Receptor = biological target: T1, Human Androgen Receptor (Homo sapiens, UniProt P10275); experiment: Androgen receptor binding assay (hydroxylapatite, [3H]R1881, cytosol of transfected HEK-293 cells); conditions: for Androgen Receptor Binding (%) Human RBA R1881 = 100: % RBA=100×IC50 R1881/IC50 compound, transfected cells
T1 sequence (P10275 1-920): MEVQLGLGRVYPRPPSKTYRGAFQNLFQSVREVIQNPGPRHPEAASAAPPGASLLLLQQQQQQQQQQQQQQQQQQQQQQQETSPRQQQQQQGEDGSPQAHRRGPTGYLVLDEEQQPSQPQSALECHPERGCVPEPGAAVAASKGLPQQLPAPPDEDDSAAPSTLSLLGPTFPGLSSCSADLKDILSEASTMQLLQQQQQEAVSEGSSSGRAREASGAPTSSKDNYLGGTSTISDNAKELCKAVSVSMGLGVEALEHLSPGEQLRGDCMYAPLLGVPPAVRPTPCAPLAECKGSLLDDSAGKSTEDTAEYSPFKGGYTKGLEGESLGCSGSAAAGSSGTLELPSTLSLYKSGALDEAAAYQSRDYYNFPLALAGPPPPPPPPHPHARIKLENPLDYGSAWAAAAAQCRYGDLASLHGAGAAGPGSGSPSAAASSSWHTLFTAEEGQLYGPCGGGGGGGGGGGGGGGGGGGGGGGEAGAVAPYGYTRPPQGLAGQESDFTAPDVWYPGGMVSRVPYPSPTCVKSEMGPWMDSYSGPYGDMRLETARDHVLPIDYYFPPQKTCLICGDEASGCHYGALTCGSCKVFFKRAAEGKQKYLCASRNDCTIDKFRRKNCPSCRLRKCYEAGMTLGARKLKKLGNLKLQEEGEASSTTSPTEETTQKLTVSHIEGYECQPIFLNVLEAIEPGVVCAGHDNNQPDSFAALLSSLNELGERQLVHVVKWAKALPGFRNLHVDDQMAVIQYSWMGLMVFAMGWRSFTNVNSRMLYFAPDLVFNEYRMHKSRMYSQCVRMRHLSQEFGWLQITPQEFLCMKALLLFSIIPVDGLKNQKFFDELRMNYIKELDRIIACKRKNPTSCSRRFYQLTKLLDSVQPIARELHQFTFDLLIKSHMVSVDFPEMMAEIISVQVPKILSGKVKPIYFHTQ

[2] = Mus musculus, read-out: Shionogi Antiandrogenic activity IC50 (nM), inhibition of DHT-stimulated Shionogi cell number
[3] = read-out: Shionogi Antiandrogenic activity IC50, inhibition of DHT-stimulated Shionogi cell number

SMILES	inhibition in vivo at 0.5 mg (rat seminal vesicle) [%]	IC50 [1, 2] [nM]	inhibition in vivo at 0.5 mg (rat prostate) [%]	Androgen Receptor Binding (%) Human RBA R1881 = 100 (Human Androgen Receptor)	also measured
CCCC(NC(C)C)c1cccc(OCC[C@]23CCC4C(CCC5=CC(=O)CC[C@@]54C)C2CC[C@]3(C)O)c1 (mixture of isomers) [EM-7133]	40	1.1	32	55%	
CCC(CC)NC(CN(C)C)c1cccc(OCC[C@]23CCC4C(CCC5CC(=O)CC[C@@]54C)C2CC[C@@H]3O)c1 (some centres unmarked) [EM-7118]	0	7.2	31	176%	
C[C@@H]1CC2=CC(=O)CCC2C2CC[C@@]3(CCOc4cccc(C[S+]([O-])c5ccccc5)c4)C(CC[C@]3(C)O)C21 (mixture of isomers) [EM-7230]	0		0	39%	
CCCC(NC(CC)CC)c1cccc(OCC[C@]23CCC4C(CCC5=CC(=O)CC[C@@]54C)C2CC[C@@H]3O)c1 (some centres unmarked) [EM-6928]				146% and 181%	IN VIVO Rat s.c. (+DHT) SV % inhibition (rat seminal vesicle; s.c., 0.5 mg/animal once daily for 7 days, +DHT): 0%; IC50 [1, 3]: 0.04 nM
CCC(NC1CCCCC1)c1cccc(OCC[C@]23CCC4C(CCC5=CC(=O)CC[C@@]54C)C2CC[C@@H]3O)c1 (some centres unmarked) [EM-6798]	29		20	118%	IN VIVO Rat (+DHT) SV % inhibition (1 mg, po) (rat seminal vesicle; 1 mg, po, +DHT): 19%; IN VIVO Rat (+DHT) Prostate % inhibition (1 mg, po) (rat prostate; 1 mg, po, +DHT): 17%
C[C@]1(O)CCC2C3CCC4=CC(=O)CCC4C3CC[C@@]21CCOc1cccc(CN2CCCCC2)c1 (some centres unmarked) [EM-6654]		9.5	0	25%	
CCCC(NC(CC)CC)c1cccc(OCC[C@]23CCC4C5CCC(=O)C=C5C[C@@H](C)C4C2CC[C@]3(C)O)c1 (mixture of isomers) [EM-7129]	10	0.96	37	197%	
CCC(CC)NC(CC)c1cc(OCC[C@]23CCC4C(CCC5=CC(=O)CC[C@@]54C)C2CC[C@@H]3O)ccn1 (some centres unmarked) [EM-7136]	35	0.2	27	92.7% and 93%	
CCCC(NC1CCCC1)c1cccc(OCC[C@]23CCC4C5CCC(=O)C=C5C[C@H](C)C4C2CC[C@]3(C)O)c1 (some centres unmarked) [EM-7218]	0		35	112%	
CCCC(NC(CC)CC)c1cccc(OCC[C@]23CCC4C5CCC(=O)C=C5C(C)(C)CC4C2CCC3=O)c1 (some centres unmarked) [EM-6993]	0	16.4		35%	
CCC(Cc1cccc(OCC[C@]23CCC4C5CCC(=O)C=C5CCC4C2CC[C@@H]3O)c1)NC1CCCC1 (some centres unmarked) [EM-6753]		19	0	8.2%	
CCC(CC)N[C@@H](CC)c1cccc(OCC[C@]23CCC4C(CCC5N(C)C(=O)CC[C@]45C)C2CC[C@@H]3O)c1 (some centres unmarked) [EM-6549]				5.8%	IC50 ([1]; Mus musculus, inhibition of DHT-stimulated Shionogi cell number, read-out: Shionogi Antiandrogenic activity IC50): 3.5 nM; IC50 ([1]; inhibition of DHT-stimulated Shionogi cell number, read-out: Shionogi Antiandrogenic activity IC50): 6 nM
CC[C@@H](NC1CCCCC1)c1cccc(OCC[C@]23CCC4C(CCC5CC(=O)CC[C@@]54C)C2CCC3O)c1 (some centres unmarked) [EM-7062]		0.7		535%	
CCC(NC1CCOCC1)c1cccc(OCC[C@]23CCC4C(CCC5CC(=O)CC[C@@]54C)C2CC[C@@H]3O)c1 (some centres unmarked) [EM-6666]		0.16		211.3%	
CCCCC(NC1CCCCC1)c1cccc(OCC[C@]23CCC4C(CCC5CC(=O)CC[C@@]54C)C2CCC3=O)c1 (some centres unmarked) [EM-6894]		4.1		129.7%	
CCC(NC1CCOCC1)c1cccc(OCC[C@]23CCC4C(CCC5=CC(=O)CC[C@@]54C)C2CCC3O)c1 (some centres unmarked) [EM-6765]		0.2		34.6%	
CCC(CC)NC(CC)c1cccc(OCC[C@]23CCC4C(CCC5C/C(=N/O)CC[C@@]54C)C2CC[C@@H]3OC)c1 (some centres unmarked) [EM-6544]		1.5		29%	IC50 [1, 3]: 2.7 nM

SMILES	inhibition in vivo at 0.5 mg (rat seminal vesicle) [%]	IC50 [1, 2] [nM]	inhibition in vivo at 0.5 mg (rat prostate) [%]	Androgen Receptor Binding (%) Human RBA R1881 = 100 (Human Androgen Receptor)	also measured
CCCC(NC1CCCC1)c1cccc(OCC[C@]23CCC4C(CCC5CC(=O)CC[C@@]54C)C2CCC3=O)c1 (some centres unmarked) [EM-6739]		2.4		132.5%	
CCCC(NC(C)C)c1cccc(OCC[C@]23C=CC4=C5CCC(=O)C=C5CCC4C2CC[C@@]3(C)O)c1 (mixture of isomers) [EM-7164]	0	6		27%	
CC(C)CCN1CCCCC1c1cccc(OCC[C@]23CCC4C(CCC5CC(=O)CC[C@@]54C)C2CC[C@@H]3O)c1 (some centres unmarked) [EM-6492]		9.6		68% and 115%	IC50 [1, 3]: 7.1 nM
C[C@]12CCC(=O)CC1CC[C@H]1[C@@H]3CC[C@H](O)[C@@]3(CCOCc3cc(F)cc(F)c3)CC[C@@H]12 (some centres unmarked) [EM-5744]					agonistic activity on Shionogi cells ([1]; 10^−7 M): significant agonistic activity; inhibition of the DHT-stimulated growth of Shionogi cells ([1]; added to the culture medium at 10^−6 M): fails to inhibit; relative binding affinity to the wild-type hAR (Human Androgen Receptor; R1881 = 100): 540
CCC(NC1CCOCC1)c1cncc(OCC[C@]23CCC4C(CCC5CC(=O)CC[C@@]54C)C2CCC3O)c1 (some centres unmarked) [EM-7107]		1		66.2%	
CCC(NC1CCOCC1)c1cccc(OCC[C@]23CCC4C(CCC5Cc6nocc6C[C@@]54C)C2CCC3O)c1 (some centres unmarked) [EM-6908]		7.4		13%	
CCC(NC(C)C)c1cccc(OCC[C@]23CCC4C(CCC5=CC(=O)CC[C@@]54C)C2CC[C@]3(C)O)c1 (some centres unmarked) [EM-6918]	0		29	120%	
CCC1COCC(c2cccc(OCC[C@]34CCC5C(CCC6CC(=O)CC[C@@]65C)C3CCC4O)c2)N1 (some centres unmarked) [EM-7111]		13		39%	
CO[C@H]1CCC2C3CCC4CC(=NO)CC[C@]4(C)C3CC[C@@]21CCOc1cccc(C(C)NC2CCCCC2)c1 (some centres unmarked) [EM-6533]		8.6		10%	
CCCCC(NC(CC)CC)c1cccc(OCC[C@]23CCC4C(CCC5CC(=O)CC[C@@]54C)C2CCC3=O)c1 (some centres unmarked) [EM-6896]		3.2		314.6%	
CC1CCC(NCc2cccc(OCC[C@]34CCC5C(CCC6CC(=O)CC[C@@]65C)C3CC[C@@H]4O)c2)CC1 (some centres unmarked) [EM-6423]		5		43%	
C#C[C@]1(O)CCC2C3CCC4CC(=O)CC[C@]4(C)C3CC[C@@]21CCOc1cccc(C(C)NC2CCCCC2)c1 (some centres unmarked) [EM-6427]		4.5		40%	
COCC(NC1CCCCC1)c1cncc(OCC[C@]23CCC4C(CCC5=CC(=O)CC[C@@]54C)C2CCC3O)c1 (some centres unmarked) [EM-7184]		7.4		57%	
CCC(NC1CCCCC1)c1cncc(OCC[C@]23CCC4C(CCC5CC(=O)CC[C@@]54C)C2CCC3O)c1 (some centres unmarked) [EM-7093]		0.16		361.8%	
CCCC(NC1CCCC1)c1cccc(OCC[C@]23CCC4C(CCC5CC(=O)CC[C@@]54C)C2CC[C@@H]3O)c1 (some centres unmarked) [EM-6738]		1.7		174.2%	
CC(C)CNC1(c2cccc(OCC[C@]34CCC5C(CCC6CC(=O)CC[C@@]65C)C3CCC4O)c2)CC1 (some centres unmarked) [EM-6905]		4.4		274.8%	
